Where a SMILES comes first, the peptide text is derived from it. The star is where a group is joined. Cbz = O=C(OCc1ccccc1)*
Key:
[1] = system: PD-L1 protein in C42 cells; experiment: Immunoblot of PD-L1 in C42 cells treated with proteasome or cullin E3 ligase inhibitor; assay type: cell-based; settings: MG132 10 μM or MLN4924 1 μM, 12 hours
Protocol: FIG. 3K is a graph showing the excised tumor mass (mg) of B16-F10 tumors ectopically expressing SPOP Wild Type (WT) or SPOP-F102C mutant. The B16-F10 tumors were harvested after euthanizing the mice and tumor weight was recorded at the time of sacrifice. Data are represented as mean±S.D., N=5, and *p<0.05 (Student's t-test). FIG. 3L and FIG. 3M are graphs showing the relative cell surface PD-L1 expression and absolute CD3^+ T-cell populations from the isolated tumor-infiltrating lymphocytes in B16-F10 xenografted tumors ectopically expressing SPOP-WT or the SPOP-F102C mutant as determined by FACS analysis. Data are represented as mean±S.D., N=5, and *p<0.05 (Student's t-test). […] FIG. 3O and FIG. 3P are graphs showing the quantification of IHC analysis of PD-L1 protein levels and CD8^+ T cells in 82 cases of SPOP wild-type versus 15 cases of SPOP-mutant human prostate tumor specimens. **p<0.01 (Mann-Whitney test for PD-L1); *p<0.05 (Student's t-test for CD8).
(§1) Cells were lysed in EBC buffer (50 mM Tris pH 7.5, 120 mM NaCl, 0.5% NP-40) supplemented with protease inhibitors (Complete Mini, Roche) and phosphatase inhibitors (phosphatase inhibitor cocktail set I and II, Calbiochem). Protein concentrations were measured by the Beckman Coulter DU-800 spectrophotometer using the Bio-Rad protein assay reagent as described previously (Gao et al. Nat Cell Biol 11, 397-408 (2009)). […]

[2] = system: PD-L1 protein abundance in MC38, CT26, 4T1 and B16-F10 cells; experiment: Immunoblot of PD-L1 in mouse tumor cell lines arrested in M phase; assay type: cell-based; settings: MC38, CT26, 4T1 and B16-F10 cells arrested in M phase; treated 20 hours
Source text: FIG. 1A, FIG. 1B, FIG. 1C, FIG. 1D, FIG. 1E, FIG. 1F, FIG. 1G, and FIG. 1H are images showing the protein abundance of PD-L1 as the protein fluctuates during cell cycle progression. […] FIG. 1B are the cell-cycle profiles in FIG. 1A, which were monitored by fluorescence-activated cell sorting (FACS) analysis of DNA content. […] FIG. 1E and FIG. 1F show IB analysis of WCL derived from MC38 tumor cells, which are derived from colon adenocarcinoma, or CT26 mouse tumor cells, which are colon carcinoma cells, treated with the indicated concentration of nocodazole for 20 hours before harvesting. FIG. 1G and FIG. 1H show IB analysis of WCL derived from 4T1 tumor cells, which are breast cancer cells, or CT26 mouse tumor cells treated with indicated concentration of taxol for 20 hours before harvesting. […]
as §1

Cdh1 = biological target: T1, Cdh1 (UniProt Q9UM11 1-496, limits assumed); experiment: co-immunoprecipitation from transfected 293T cells (FIG. 4C)
T1 construct: Expressed in 293T cells or endogenous in MDA-MB-231 and HeLa cells; also called HA-Cdh1; APC/C E3 ligase adaptor protein Cdh1
T1 sequence (Q9UM11 whole entry): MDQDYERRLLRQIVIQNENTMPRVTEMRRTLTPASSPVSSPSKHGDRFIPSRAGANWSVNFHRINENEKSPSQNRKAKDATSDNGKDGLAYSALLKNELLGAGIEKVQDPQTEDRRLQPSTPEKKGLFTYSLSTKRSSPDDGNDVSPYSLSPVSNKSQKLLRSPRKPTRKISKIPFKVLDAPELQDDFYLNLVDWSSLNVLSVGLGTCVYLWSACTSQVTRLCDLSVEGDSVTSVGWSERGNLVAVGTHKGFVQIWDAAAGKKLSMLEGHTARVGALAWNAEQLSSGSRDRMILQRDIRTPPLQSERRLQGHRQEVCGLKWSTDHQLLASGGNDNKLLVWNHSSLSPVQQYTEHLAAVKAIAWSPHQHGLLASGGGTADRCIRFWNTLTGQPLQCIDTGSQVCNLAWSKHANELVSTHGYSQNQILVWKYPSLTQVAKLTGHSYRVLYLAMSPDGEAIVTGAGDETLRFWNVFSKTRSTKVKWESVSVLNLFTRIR
Protocol: Cells were treated with 30 μM MG132 for 6 hours before harvesting. […] FIG. 4F are in vitro kinase assays showing that cyclin D1/CDK4 phosphorylates SPOP at Ser6, not Ser222. FIG. 4G and FIG. 4H show IB analysis of IP and WCL derived from 293T cells transfected with indicated constructs and treated with MG132 (10 μM) for 12 hours before harvesting. […] Tumor volume were measured every three days and plotted individually. […]

PD-L1 = biological target: T2, PD-L1 (human, UniProt Q9NZQ7 19-290, limits assumed); experiment: co-immunoprecipitation from transfected 293T cells (FIG. 9E)
T2 construct: also called HA-PD-L1; PD-L1 WT
T2 sequence (Q9NZQ7 19-290 limits assumed): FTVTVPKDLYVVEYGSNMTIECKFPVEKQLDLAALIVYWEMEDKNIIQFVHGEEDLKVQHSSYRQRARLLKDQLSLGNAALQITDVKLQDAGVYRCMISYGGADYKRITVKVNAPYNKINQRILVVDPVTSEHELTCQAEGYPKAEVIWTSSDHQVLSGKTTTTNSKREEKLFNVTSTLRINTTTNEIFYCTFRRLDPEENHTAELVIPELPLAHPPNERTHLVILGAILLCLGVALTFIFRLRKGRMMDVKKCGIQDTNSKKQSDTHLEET

SPOP-S6A mutant = biological target: T3, SPOP-S6A mutant (UniProt O43791 1-374); experiment: co-immunoprecipitation from transfected 293T cells (FIG. 4H)
T3 construct: also called Flag-SPOP S6A; phosphorylation-deficient S6A mutant of SPOP

**Q.** `CC(C)C[C@@H](C=O)NC(=O)[C@H](CC(C)C)NC(=O)[C@H](CC(C)C)NC(=O)OCc1ccccc1` [MG132] (Cbz-Leu-Leu-Leu-aldehyde) was tested. Which PD-L1 protein stability [1] did it give?
**A.** stabilized PD-L1 protein

**Q.** For `NS(=O)(=O)OC[C@@H]1C[C@@H](n2ccc3c(N[C@H]4CCc5ccccc54)ncnc32)C[C@@H]1O` [MLN4924], which PD-L1 protein stability [1] is on record?
**A.** stabilized PD-L1 protein

**Q.** For `CC(=O)O[C@H]1C(=O)[C@@]2(C)[C@H]([C@H](OC(=O)c3ccccc3)[C@]3(O)C[C@H](OC(=O)[C@H](O)[C@@H](NC(=O)c4ccccc4)c4ccccc4)C(C)=C1C3(C)C)[C@]1(OC(C)=O)CO[C@@H]1C[C@@H]2O` [Taxol], which PD-L1 protein abundance [2] is on record?
**A.** Elevated PD-L1 protein abundance

**Q.** Which PD-L1 protein abundance [2] does the source give for `COC(=O)Nc1nc2ccc(C(=O)c3cccs3)cc2[nH]1` [nocodazole] here?
**A.** Elevated PD-L1 protein abundance

B1: Flag-SPOP with delta D-Box (RxxL) (other, UniProt O43791 1-374, looked up)
chain: MSRVPSPPPPAEMSSGPVAESWCYTQIKVVKFSYMWTINNFSFCREEMGEVIKSSTFSSGANDKLKWCLRVNPKGLDEESKDYLSLYLLLVSCPKSEVRAKFKFSILNAKGEETKAMESQRAYRFVQGKDWGFKKFIRLDEANGLLPDDKLTLFCEVSVVQDSVNISGQNTMNMVKVPECRLADELGGLWENSRFTDCCLCVAGQEFQAHKAILAARSPVFSAMFEHEMEESKKNRVEINDVEPEVFKEMMCFIYTGKAPNLDKMADDLLAAADKYALERLKVMCEDALCSNLSVENAAEILILADLHSADQLKTQAVDFINYHASDVLETSGWKSMVVSHPHLVAEAYRSLASAQCPFLGPPRKRLKQS
notes: also called SPOP deletion of RxxL mutant; SPOP D-box deletion
**Q.** Does B1 bind (Cdh1)?
**A.** no binding

B2: SPOP delta MATH (other, UniProt O43791 1-374, looked up)
chain: MSRVPSPPPPAEMSSGPVAESWCYTQIKVVSVVQDSVNISGQNTMNMVKVPECRLADELGGLWENSRFTDCCLCVAGQEFQAHKAILAARSPVFSAMFEHEMEESKKNRVEINDVEPEVFKEMMCFIYTGKAPNLDKMADDLLAAADKYALERLKVMCEDALCSNLSVENAAEILILADLHSADQLKTQAVDFINYHASDVLETSGWKSMVVSHPHLVAEAYRSLASAQCPFLGPPRKRLKQS
notes: also called SPOP with the MATH domain deleted; Flag-tagged SPOP delta MATH
**Q.** Does B2 bind (PD-L1)?
**A.** no binding

B3: 14-3-3γ (other, UniProt P61981 1-247, looked up)
chain: MVDREQLVQKARLAEQAERYDDMAAAMKNVTELNEPLSNEERNLLSVAYKNVVGARRSSWRVISSIEQKTSADGNEKKIEMVRAYREKIEKELEAVCQDVLSLLDNYLIKNCSETQYESKVFYLKMKGDYYRYLAEVATGEKRATVVESSEKAYSEAHEISKEHMQPTHPIRLGLALNYSVFYYEIQNAPEQACHLAKTAFDDAIAELDTLNEDSYKDSTLIMQLLRDNLTLWTSDQQDDDGGEGNN
notes: One of the HA-14-3-3 isoform constructs; also called HA-14-3-3γ
**Q.** Does B3 bind (SPOP-S6A mutant)?
**A.** no binding
